# Assay results published in patent publication US9757424B2, “Compositions and methods of treating gliomas” (BioMed Valley Discoveries, Inc., priority 2011, dated 2017).
# Where “and” joins values, the source holds several entries; their conditions need not be identical. Equal entries are not always repeated. Where two headings read alike, the source gives them in different places.
# Columns and labels:
# [1] = test system: U87MG human glioblastomas; experiment: U87MG human glioblastoma xenograft in nude mice, tumor growth inhibition Day 22 (Example 1)
# Protocol: Each test mouse received a U87MG tumor fragment of the size 1 mm^3. […] Body weight and tumor size were monitored.
# It was administered at either 5 mg/kg orally (p.o.) per day or 100 mg/kg (p.o.) per day, once daily from day 1 to day 5 of the treatment (qd×5). Candesartan in 0.5% carboxymethyl cellulose was dissolved in deionized water and administered intraperitoneally (i.p.) at the dose of 10 mg/kg once daily from day 1 to day 21 (qd×21).
# [2] = test system: U87MG tumor fragments; experiment: animal or person; details: for Regression CR (complete regression) / Regression PR (partial regression): number of animals
# Protocol: HRLN female nu/nu mice were seeded with 1 mm^3 U87MG tumor fragments subcutaneously in the flank. Final caliper and body weight measurements were taken on the last day of the study.
# All animals were assessed periodically for body weight, as well as tumor burden, using standard protocols with mechanical calipers. […] Dosing was stopped for any group with two measurements of mean body weight loss of greater than 20%. The group was not euthanized, and recovery was allowed. Within a group with greater than 20% weight loss, individuals reaching the individual body weight loss endpoint were euthanized. If the group body weight loss was recovered, dosing may resume. […] Dosing was then resumed with the candidate agent at half the original dose. Animals were monitored as a group. The endpoint of the experiment was a mean tumor weight in control group (or group 1) of 2000 mm^3 or 60 days, whichever comes first. When the endpoint was reached, all the animals were euthanized.
# [3] = test system: U87MG human glioblastoma xenografts; experiment: U87MG human glioblastoma xenograft, tumor growth delay, 49-day study (Example 2);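 note: female athymic nude mice with subcutaneous tumors, groups of ten, tumors measured twice weekly, endpoint at 2000 mm^3 tumor volume or Day 49, treated compared with control mice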
# Protocol: The experiment consisted of groups (n=10) of female athymic nude mice bearing subcutaneous U87MG xenografts (75-144 mm^3) on Day 1. Candesartan was evaluated as monotherapies at dosages of 1, 5, 10 and 50 mg/kg administered intraperitoneally (i.p.) on a once daily for twenty-one days (qd×21) schedule. […] Dosing was initiated on Day 1, and tumors were measured twice each week until the study was ended on Day 49. Animals were monitored individually and each mouse was euthanized for endpoint when its tumor attained a volume of 2000 mm^3 (about 2 grams) or on the final day (Day 49), whichever came first. Tumor samples were collected at endpoint, and histopathology analyses were performed.
# The time to endpoint (TTE) was calculated for each mouse. Treatment outcome was determined from percent tumor growth delay (% TGD), defined as the percent increase in median TTE of treated versus control mice, with differences in the TTE values between groups deemed statistically significant at P 0.05 using logrank survival analysis. Animals were also monitored for partial regression (PR) and complete regression (CR) responses. Treatment tolerability was assessed by body weight measurements and frequent observation for signs of treatment-related (TR) toxicity.
# Treatment response was determined from an analysis of percent tumor growth delay (% TGD), defined as the percent increase in the median time to endpoint (TTE) in treated versus control mice; by logrank significance of differences in survival among treatment groups; and by regression responses. Plots of group mean tumor growth were also considered. Treatment tolerability was assessed by body weight measurements and frequent observation for clinical symptoms of treatment-related (TR) side effects.
# Xenografts were initiated with U87MG human glioblastomas (Piedmont Research Center, Morrisville, N.C.) by serial subcutaneous transplantation in athymic nude mice. Each test mouse received a U87MG tumor fragment (1 mm^3) implanted subcutaneously in the right flank, and the growth of tumors was monitored as the average size approached the target range of 80 to 120 mm^3. […] Tumor volume was calculated using the formula: Tumor Volume (mm^3)=w^2×l/2 where w=width and l=length in mm of a U87MG tumor. Tumor weight may be estimated with the assumption that 1 mg is equivalent to 1 mm^3 of tumor volume. Therapeutic Agents
# Doses of valsartan and candesartan were each formulated weekly, and were stored at 4° C. Valsartan dosing solutions were formulated at concentrations of 15 and 3 mg/mL to yield the desired 150 and 30 mg/kg dosages, respectively, in a dosing volume of 0.2 mL per 20 grams body weight (10 mL/kg). The required amount of valsartan powder for the 15 mg/mL solution was suspended in sterile saline, then dissolved with 0.1 N NaOH and pH adjusted to 7.4 with 0.1 N HCl. The 3 mg/mL valsartan dosing solution was prepared by diluting an aliquot of the 15 mg/mL valsartan solution with sterile saline. Candesartan doses were formulated in 0.5% carboxymethyl cellulose (CMC) in deionized water at concentrations of 5, 1, 0.5 and 0.1 mg/mL to yield the desired 50, 10, 5 and 1 mg/kg dosages, respectively, in a dosing volume of 10 mL/kg.
# Each test agent was administered intraperitoneally (i.p.) once daily for twenty-one days (qd×21), unless otherwise indicated.
# Group 1 was not treated and served as the control group for calculation of % TGD. […] Groups 4-7 received candesartan at 50, 10, 5 or 1 mg/kg, respectively. […] All doses were scaled to the body weights of the individual animals.
# Tumors were measured twice each week using calipers.
# [4] = test system: U87MG glioma human tumor cell line
# Protocol: Compounds are assessed for combination efficacy in a tumor fragment xenograft model generated by serial passage of a commonly available U87MG glioma human tumor cell line. Experimental cohorts are derived by seeding 8-12 week old, female HRLN nu/nu mice with 1 mm^3 sub-fragments of tumors maintained through serial passage in living xenografts. […] Experimental compounds are dosed once daily, in a dose volume less than or equal to 10 mL/kg, in varying vehicle resuspensions and varied routes (see table 7 below). All animals are assessed periodically for body weight, as well as tumor burden using standard protocols with mechanical calipers.
# Experimental compounds are scored for efficacy using various data analyses, including manual growth curve inspection, comparison of mean time-to-tumor burden (analogous to C/T analysis), and time-to-event survival analysis by tumor burden.
# [5] = test system: U87MG human glioblastoma xenografts
# Protocol: An untreated group served as the control group for efficacy analysis. Dosing was initiated on Day 1, except where indicated otherwise, and tumors were measured twice each week until the study was ended on Day 46. Animals were monitored individually and each mouse was euthanized for endpoint when its tumor attained a volume of 2000 mm^3 (about 2 grams) or on the final day (Day 46), whichever came first.
# Treatment response was determined from an analysis of percent tumor growth delay (% TGD), defined as the percent increase in the median time to endpoint (TTE) in treated versus control mice; by logrank significance of differences in survival among treatment groups; and by regression responses. Plots of group mean tumor growth were also considered. Treatment tolerability was assessed by body weight measurements and frequent observation for clinical symptoms of treatment-related side effects.
# Xenografts were initiated with U87MG human glioblastomas maintained at Piedmont by serial subcutaneous transplantation in athymic nude mice. Each test mouse received a U87MG tumor fragment (1 mm^3) implanted subcutaneously in the right flank, and the growth of tumors was monitored as the average size approached the target range of 80 to 120 mm^3. […] Tumor volume was calculated using the formula: Tumor Volume (mm^3)=w^2×l where w=width and l=length in mm of a U87MG tumor. Tumor weight may be estimated with the assumption that 1 mg is equivalent to 1 mm^3 of tumor volume.
# On Day 1 of the study, mice were sorted into six groups each consisting of ten mice, and dosing was initiated according to the treatment plan summarized in Table 1. Group 1 mice were not treated and served as controls for calculation of % TGD. […] All doses were scaled to the body weights of the individual animals.
# Tumors were measured twice each week using calipers. Animals were monitored individually, and each mouse was euthanized when its tumor reached the endpoint size of 2000 mm^3 or at the conclusion of the study (Day 46), whichever came first.
# Animals were monitored for regression responses. Treatment may cause partial regression (PR) or complete regression (CR) of the tumor in an animal. In a PR response, the tumor volume is 50% or less of its Day 1 volume for three consecutive measurements during the course of the study, and equal to or greater than 13.5 mm^3 for one or more of these three measurements. In a CR response, the tumor volume is less than 13.5 mm^3 for three consecutive measurements during the course of the study. An animal with a CR response at the termination of a study is additionally classified as a tumor-free survivor (TFS).
# Animals were weighed daily on Days 1-5, and then twice weekly until the study was completed. […] Acceptable toxicity was defined as a group mean body-weight loss of less than 20% during the study and not more than one treatment-related (TR) death among ten treated animals. Any dosing regimen that results in greater toxicity is considered above the maximum tolerated dose (MTD). […] A death is classified as NTR if there is no evidence that death was related to treatment side effects. NTR deaths may be further characterized based on cause of death. A death may be classified as NTRa if it resulted from an accident or human error. […] A death may be classified as NTRu if the cause of death is unknown and there is no available evidence of death related to treatment side effects, metastasis, accident or human error, although death due to treatment side effects cannot be excluded.
# [6] = temozolomide 100 mg/kg p.o. qdx5
# [7] = Group 1: temozolomide 5 po qd x 5 alone
# [8] = Group 1: temozolomide 5 po qd x 5 alone, n=10
# [9] = Group 19: temozolomide 100 po qd x 5 alone
# [10] = Group 19: temozolomide 100 po qd x 5 alone, n=8
# [11] = Group 2: temozolomide 100 mg/kg po qd x 5
# [12] = Group 3: temozolomide 5 mg/kg po qd x 5
# [13] = Day 1, temozolomide 100 mg/kg p.o. qdx5
# [14] = Day 4, temozolomide 100 mg/kg p.o. qdx5
# [15] = Day 7, temozolomide 100 mg/kg p.o. qdx5
# [16] = Day 11, temozolomide 100 mg/kg p.o. qdx5
# [17] = Day 14, temozolomide 100 mg/kg p.o. qdx5
# [18] = Day 18, temozolomide 100 mg/kg p.o. qdx5
# [19] = Day 21, temozolomide 100 mg/kg p.o. qdx5
# [20] = Day 25, temozolomide 100 mg/kg p.o. qdx5
# [21] = Day 28, temozolomide 100 mg/kg p.o. qdx5
# [22] = temozolomide 100 mg/kg po qd x 5
# [23] = Group 2: temozolomide 5 mg/kg po qd x 5
# [24] = Group 6: temozolomide 100 mg/kg po qd x 5
compound,measurement,setting,value
"Cn1nnc2c(C(N)=O)ncn2c1=O [Temozolomide, temozolomide]",MTV (n) Day 22 (mean tumor volume),[1]; temozolomide 5 mg/kg p.o. qdx5,825 mm^3
same,No. of CR,[1]; temozolomide 5 mg/kg p.o. qdx5,0
same,No. of NTR,[1]; temozolomide 5 mg/kg p.o. qdx5,0
same,No. of PR,[1]; temozolomide 5 mg/kg p.o. qdx5,0
same,No. of TR,[1]; temozolomide 5 mg/kg p.o. qdx5,0
same,MTV (n) Day 22 (mean tumor volume),"[1]; temozolomide 5 mg/kg p.o. qdx5, listed as temozolomide",825.1 ± 95.03 N = 115 mm^3
same,No. of CR,[1]; [6],0
same,No. of NTR,[1]; [6],0
same,No. of PR,[1]; [6],1
same,No. of TR,[1]; [6],0
same,% TGI,"[1]; temozolomide 100 mg/kg p.o. qdx5, Day 22, compared to temozolomide at 5 mg/kg",88%
same,Deaths NTR (non-treatment-related death),[2]; [7],0
same,Deaths TR (treatment-related death),[2]; [7],0
same,MTV(n) Day 29 (median tumor volume),[2]; [7],410 (10) mm^3
same,Regression CR (complete regression),[2]; [8],1
same,Regression PR (partial regression),[2]; [8],0
same,Deaths NTR (non-treatment-related death),[2]; [9],0
same,Deaths TR (treatment-related death),[2]; [9],0
same,"Mean BW Nadir (lowest group mean body weight, as % change from Day 1)",[2]; [9],−2.5%
same,MTV(n) Day 29 (median tumor volume),[2]; [9],10 (8) mm^3
same,Regression CR (complete regression),[2]; [10],7
same,Regression PR (partial regression),[2]; [10],1
same,inhibition in vivo at 100 mg/kg,"[2]; Mus musculus, U-87 MG, po, 864 h, read-out: % TGI (percent tumor growth inhibition, compared to Group 1)",98%
same,"Mean BW Nadir, day of nadir","[2]; mouse, in vivo, po",Day 8
same,% TGD (vs Group 1),[3]; [11],276%
same,Deaths NTR,[3]; [11],0
same,Deaths TR,[3]; [11],0
same,MTV (n) Day 49,[3]; [11],0 (2) mm^3
same,Median TTE,[3]; [11],43.6 days
same,Regressions CR,[3]; [11],2
same,Regressions PR,[3]; [11],3
same,Regressions TFS,[3]; [11],2
same,T − C (TGD vs Group 1),[3]; [11],32.0 days
same,% TGD (vs Group 1),[3]; [12],93%
same,Deaths NTR,[3]; [12],0
same,Deaths TR,[3]; [12],0
same,Median TTE,[3]; [12],22.4 days
same,Regressions CR,[3]; [12],0
same,Regressions PR,[3]; [12],0
same,Regressions TFS,[3]; [12],0
same,T − C (TGD vs Group 1),[3]; [12],10.8 days
same,"TV, group Mean","[4]; Day 1, temozolomide 5 mg/kg po qd x 5",111.2 mm^3
same,"TV, group Mean",[4]; [13],110.7 mm^3
same,"TV, individual mice",[4]; [13],88 mm^3 and 108 mm^3
same,"TV, group Mean","[4]; Day 4, temozolomide 5 mg/kg po qd x 5",222.2 mm^3
same,"TV, group Mean",[4]; [14],182.8 mm^3
same,"TV, individual mice",[4]; [14],144 mm^3 and 172 mm^3
same,"TV, group Mean","[4]; Day 7, temozolomide 5 mg/kg po qd x 5",439.1 mm^3
same,"TV, group Mean",[4]; [15],185 mm^3
same,"TV, individual mice",[4]; [15],144 mm^3 and 196 mm^3
same,"TV, group Mean","[4]; Day 11, temozolomide 5 mg/kg po qd x 5",599.1 mm^3
same,"TV, group Mean",[4]; [16],215.2 mm^3
same,"TV, individual mice",[4]; [16],100 mm^3 and 256 mm^3
same,"TV, group Mean","[4]; Day 14, temozolomide 5 mg/kg po qd x 5",720.4 mm^3
same,"TV, group Mean",[4]; [17],221.5 mm^3
same,"TV, individual mice",[4]; [17],144 mm^3
same,"TV, group Mean","[4]; Day 18, temozolomide 5 mg/kg po qd x 5",852.1 mm^3
same,"TV, group Mean",[4]; [18],140.6 mm^3
same,"TV, individual mice",[4]; [18],88 mm^3
same,"TV, group Mean","[4]; Day 21, temozolomide 5 mg/kg po qd x 5",1058.6 mm^3
same,"TV, group Mean",[4]; [19],99.1 mm^3
same,"TV, individual mice",[4]; [19],75 mm^3
same,"TV, group Mean","[4]; Day 25, temozolomide 5 mg/kg po qd x 5",1795.6 mm^3
same,"TV, group Mean",[4]; [20],98.4 mm^3
same,"TV, individual mice",[4]; [20],88 mm^3
same,"TV, group Mean","[4]; Day 28, temozolomide 5 mg/kg po qd x 5",1890.8 mm^3
same,"TV, group Mean",[4]; [21],95 mm^3
same,"TV, individual mice",[4]; [21],144 mm^3
same,Deaths NTR,[4]; temozolomide 5 mg/kg po qd x 5,0
same,Deaths TR,[4]; temozolomide 5 mg/kg po qd x 5,0
same,MTV (n) Day 25 (median tumor volume),[4]; temozolomide 5 mg/kg po qd x 5,1180 mm^3
same,Regressions CR,[4]; temozolomide 5 mg/kg po qd x 5,0
same,Regressions PR,[4]; temozolomide 5 mg/kg po qd x 5,0
same,Deaths NTR,[4]; [22],0
same,Deaths TR,[4]; [22],0
same,MTV (n) Day 25 (median tumor volume),[4]; [22],88 mm^3
same,Regressions CR,[4]; [22],0
same,Regressions PR,[4]; [22],0
same,% TGI,"[4]; temozolomide 100 mg/kg po qd x 5, Day 25, compared to temozolomide 5 mg/kg group",94%
same,Median TTE,[5],42.0 days
same,% TGD (vs Group 1),[5]; [23],152%
same,Deaths NTR,[5]; [23],0
same,Deaths TR,[5]; [23],0
same,Median TTE,[5]; [23],28.7 days
same,Regressions CR,[5]; [23],0
same,Regressions PR,[5]; [23],0
same,Regressions TFS,[5]; [23],0
same,T − C (TGD vs Group 1),[5]; [23],17.3 days
same,% TGD (vs Group 1),[5]; [24],268%
same,Deaths NTR,[5]; [24],0
same,Deaths TR,[5]; [24],0
same,Median TTE,[5]; [24],42 days
same,Regressions CR,[5]; [24],1
same,Regressions PR,[5]; [24],0
same,Regressions TFS,[5]; [24],1
same,T − C (TGD vs Group 1),[5]; [24],30.6 days
same,MTV (n) Day 46 (median tumor volume),"[5]; Group 6: temozolomide 100 mg/kg po qd x 5, excludes animals attaining tumor volume endpoint",0 (1) mm3
